Here are results for 24 compounds from patent US6596726B1, “Tricyclic compounds capable of inhibiting tyrosine kinases of the epidermal growth factor receptor family” (Warner Lambert Company, priority 1994, dated 2003).

Counter-ions that a name gives are not always drawn. Like-named read-outs stand apart in the source and are kept apart here. A value given as a limit tells only on which side of the number the result lay.

In assay [1] the target is T1, Human EGF receptor tyrosine kinase (Homo sapiens, UniProt P00533).
T1 construct: Human EGF receptor tyrosine kinase was isolated from A431 human epidermoid carcinoma cells which overexpress EGF receptor; endogenous in cells; host or cells: A431 human epidermoid carcinoma cells; purified on wheat germ agglutinin sepharose
The experiment in a line: EGF receptor tyrosine kinase inhibition (phosphorylation of PLC-gamma 1 derived peptide). The assay is classed as biochemical. The method, then:
Purification of Epidermal Growth Factor Receptor Tyrosine Kinase—Human EGF receptor tyrosine kinase was isolated from A431 human epidermoid carcinoma cells which overexpress EGF receptor by the following methods. Cells were grown in roller bottles in 50% Delbuco's Modified Eagle and 50% HAM F-12 nutrient media (Gibco) containing 10% fetal calf serum. Approximately 10^9 cells were lysed in two volumes of buffer containing 20 mM 2-(4N-[2-hydroxyethyl]piperazin-1-yl)ethanesulfonic acid (hepes), pH 7.4, 5 mM ethylene glycol bis(2-aminoethyl ether) N,N,N′,N′-tetraacetic acid, 1% Triton X-100, 10% glycerol, 0.1 mM sodium orthovanadate, 5 mM sodium fluoride, 4 mM pyrophosphate, 4 mM benzamide, 1 mM dithiothreitol, 80 μg/mL aprotinin, 40 μg/mL leupeptin and 1 mM phenylmethylsulfonyl fluoride. After centrifugation at 25,000×g for 10 minutes, the supernatant was equilibrated for 2 h at 4° C. with 10 mL of wheat germ agglutinin sepharose that was previously equilibrated with 50 mM Hepes, 10% glycerol, 0.1% Triton X-100 and 150 mM NaCl, pH 7.5, (equilibration buffer). Contaminating proteins were washed from the resin with 1 M NaCl in equilibration buffer, and the enzyme was eluted with 0.5 M N-acetyl-1-D-glucosamine in equilibration buffer, followed by 1 mM urea. The enzyme was eluted with 0.1 mg/ml EGF.
The reaction was terminated by the addition of 2 mL of 75 mM phosphoric acid and passed through a 2.5 cm phosphocellulose filter disc to bind the peptide. The filter was washed five times with 75 mM phosphoric acid and placed in a vial along with 5 mL of scintillation fluid (Ready gel Beckman).

Assay [2] concerns the target T2, EGF receptor autophosphorylation in A431 human epidermoid carcinoma cells (Homo sapiens, UniProt P00533).
T2 construct: endogenous in cells; host or cells: A431 human epidermoid carcinoma cells (ATCC)
As to the kind of experiment: Inhibition of EGF-induced autophosphorylation in A431 epidermoid carcinoma cells. The assay is classed as cell-based. The method, then: Cells were grown to 100% confluency in 100 mm Petrie dishes (Corning). After the cells were treated for 5 minutes with either EGF (epidermal growth factor), PDGF, or bFGF (basic fibroblast growth factor) (20 ng/ml) or 1 ml of conditioned media from MDA-MB-231 cells, the media was removed and the monolayer scraped into 1 ml of ice cold lysis buffer (50 mM Hepes, pH 7.5, 150 mM NaCl, 10% glycerol, 1% triton X-100, 1 mM EDTA, 1 mM EGTA, 10 mM sodium pyrophosphate, 30 mM p-nitrophenyl phosphate, 1 mM orthovanadate, 50 mM sodium fluoride, 1 mM phenylmethylsulfonylfluoride, 10 μg/ml of aprotinin, and 10 μg/ml of leupeptin). The lysate was transferred to a microfuge tube (small centrifuge that holds 1-2 ml plastic centrifuge tubes), allowed to sit on ice 15 minutes and centrifuged 5 minutes at 10,000×g. The supernatant was transferred to a clean microfuge tube and 5 μg of antibody was added to designated samples. The tubes were rotated for 2 hours at 4° C. after which 25 μl of protein A sepharose was added and then rotation continued for at least 2 more hours. The protein A separose was washed 5 times with 50 mM Hepes, pH 7.5, 150 mM NaCl, 10% glycerol and 0.02% sodium azide. […] The extract were transferred to a microfuge tube and heated to 100° C. for 5 minutes. […] Proteins in the gel were electrophoretically transferred to nitrocellulose and the membrane was washed once in 10 mM Tris buffer, pH 7.2, 150 mM NaCl, 0.01% Azide (TNA) and blocked overnight in TNA containing 5% bovine serum albumin and 1% ovalbumin (blocking buffer). The membrane was blotted for 2 hours with the primary antibody (1 μg/ml in blocking buffer) and then washed 2 times sequentially in TNA, TNA containing 0.05% Tween-20 and 0.05% Nonidet P-40 (commercially available detergent) and TNA.
(§1) Inhibition of EGF-Induced Autophosphorylation in A431 Epidermoid Carcinoma Cells and Conditioned Media-Induced Autophosphorylation in SK-BR-3 Breast Tumor Cells by Compounds of the Current Invention
The numbers to the left of gels indicate the positions of molecular weight standards in kiloDaltons.

Assay [3] deals with erbB-2, 3, 4 autophosphorylation in SK-BR-3 breast tumor cells. As to the kind of experiment: Inhibition of conditioned media-induced autophosphorylation in SK-BR-3 breast tumor cells. The assay is classed as cell-based, human. Particulars: SK-BR-3 cells, read-out: SKBR-3 IC50. The method, then:
Cells were grown to 100% confluency in 100 mm Petrie dishes (Corning). After the cells were treated for 5 minutes with either EGF (epidermal growth factor), PDGF, or bFGF (basic fibroblast growth factor) (20 ng/ml) or 1 ml of conditioned media from MDA-MB-231 cells, the media was removed and the monolayer scraped into 1 ml of ice cold lysis buffer (50 mM Hepes, pH 7.5, 150 mM NaCl, 10% glycerol, 1% triton X-100, 1 mM EDTA, 1 mM EGTA, 10 mM sodium pyrophosphate, 30 mM p-nitrophenyl phosphate, 1 mM orthovanadate, 50 mM sodium fluoride, 1 mM phenylmethylsulfonylfluoride, 10 μg/ml of aprotinin, and 10 μg/ml of leupeptin). The lysate was transferred to a microfuge tube (small centrifuge that holds 1-2 ml plastic centrifuge tubes), allowed to sit on ice 15 minutes and centrifuged 5 minutes at 10,000×g. The supernatant was transferred to a clean microfuge tube and 5 μg of antibody was added to designated samples. The tubes were rotated for 2 hours at 4° C. after which 25 μl of protein A sepharose was added and then rotation continued for at least 2 more hours. The protein A separose was washed 5 times with 50 mM Hepes, pH 7.5, 150 mM NaCl, 10% glycerol and 0.02% sodium azide. The precipitates were resuspended with 30 μl of Laemlli buffer (Laemmli, NATURE, […], pp. 680-685, 1970), heated to 100° C. for 5 minutes and centrifuged to obtain the supernatant. Whole cell extracts were made by scraping cells grown in the wells of 6 well plates into 0.2 ml of boiling Laemmli buffer. The extract were transferred to a microfuge tube and heated to 100° C. for 5 minutes. The entire supernatant from the immunoprecipitation or 35 μl of the whole cell extract was loaded onto a polyacrylamide gel (4-20%) and electrophoresis carried out by the method of Laemlli (Laemmli, 1970). Proteins in the gel were electrophoretically transferred to nitrocellulose and the membrane was washed once in 10 mM Tris buffer, pH 7.2, 150 mM NaCl, 0.01% Azide (TNA) and blocked overnight in TNA containing 5% bovine serum albumin and 1% ovalbumin (blocking buffer). The membrane was blotted for 2 hours with the primary antibody (1 μg/ml in blocking buffer) and then washed 2 times sequentially in TNA, TNA containing 0.05% Tween-20 and 0.05% Nonidet P-40 (commercially available detergent) and TNA. The membranes were then incubated for 2 hours in blocking buffer containing 0.1 μCi/ml of [^125I] protein A and then washed again as above. After the blots were dry they were loaded into a film cassette and exposed to X-AR X-ray film for 1-7 days. Protein A is a bacterial protein that specifically bonds certain IgG subtypes and is useful in binding to and isolating antibody-antigen complexes.
as §1

[4] abbreviates: EGF Receptor Tyrosine Kinase Inhibition, Table 1, values in nM, read-out: IC50 in EGFR.
The mark [5] stands for this setting: enzyme value repeated in the autophosphorylation table, read-out: EGFR IC50.

Consider “4-(3-Bromoanilino)imidazolo[4,5-h]quinazoline hydrochloride [Example 11]”, for which the half-maximal inhibitory concentration (IC50) (usually the concentration needed to halve the response being measured) in assay [1] (read-out: IC50 in EGFR) came to 272 nM.

Regarding “4-(3-Bromoanilino)triazolo[4,5-g]quinazoline hydrochloride [Example 7]”, the IC50 in assay [1] (setting [4]) is 4.1 nM.

Turning to `Brc1cccc(Nc2ncnc3cc4ccccc4cc23)c1` [Example 1, 4-(3-bromoanilino)benzo[q]quinazoline hydrochloride], the IC50 in assay [2] was 17 nM; in assay [1], under 0.1 nM; in assay [1] (read-out: EGFR IC50 nM), under 0.1 nM.

Take `C[C@@H](Nc1ncnc2cc3ccccc3cc12)c1ccccc1` [Example 2, 4-([R]-1-Phenylethylamino)benzo[g]quinazoline hydrochloride]: in assay [1] (setting [4]), the half-inhibitory concentration (IC50) stood at 21 nM.

In turn, `Brc1cccc(Nc2ncnc3cc4[nH]ccc4cc23)c1` [Example 3, 4-(3-Bromoanilino)pyrrolo[3,2-g]quinazoline] gave an IC50 in assay [1] of 0.76 nM.

For `Brc1cccc(Nc2ncnc3cc4ncoc4cc23)c1` [Example 5], the IC50 in assay [1] (EGF Receptor Tyrosine Kinase Inhibition, Table 1, values in pM, read-out: IC50 in EGFR) was found to be 0.075 nM.

Consider `Cn1cnc2cc3c(Nc4cccc(Br)c4)ncnc3cc21` [Example 8, 4-(3-Bromoanilino)-8,N-methylimidazolo[4,5-g]quinazoline], for which, in assay [3], the IC50 is 10 nM.

Turning to `Cn1cnc2cc3ncnc(Nc4cccc(Br)c4)c3cc21` [Example 9, 4-(3-Bromoanilino)-6,N-methylimidazolo[4,5-g]quinazoline], the IC50 in assay [1] is about 0.01 nM.

For the compound `Brc1cccc(Nc2ncnc3cc4nccnc4cc23)c1` [Example 10, 4-(3-Bromoanilino)pyrazino[2,3-g]quinazoline], the IC50 in assay [2] was 31 nM; in assay [3] it was about 700 nM; in assay [1] (read-out: EGFR IC50), 1.7 nM; in assay [1] (read-out: IC50 in EGFR), 1.7 nM.

As to `C[C@@H](Nc1ncnc2c1sc1ccccc12)c1ccccc1` [Example 14, 4-([R]-1-Phenylethylamino)benzothieno[3,2-d]pyrimidine], the IC50 in assay [1] (setting [4]) was found to be 538 nM.

With `Brc1cccc(Nc2ncnc3c2sc2ccccc23)c1` [Example 15, 4-(3-Bromoanilino)benzothieno[3,2-d]pyrimidine], the IC50 in assay [2] was found to be 170 nM; in assay [1] (setting [4]), 1.8 nM; in assay [1] (setting [5]), 1.8 nM.

Regarding `O=[N+]([O-])c1ccc2sc3c(Nc4cccc(Br)c4)ncnc3c2c1` [Example 16, 4-(3-Bromoanilino)-8-nitrobenzo[b]thieno[3,2-d]pyrimidine], in assay [1] (setting [4]), the IC50 came to 12.3 nM.

With `COc1cccc2sc3c(Nc4cccc(Br)c4)ncnc3c12.Cl` [Example 18, 4-(3-Bromoanilino)-9-methoxybenzo[b]thieno[3,2-d]pyrimidine hydrochloride.], the “EGFR inhibition at fixed concentration” value in assay [1] (@ 10 nM) stood at 36% @ 10.

Consider `Brc1cccc(Nc2ncnc3c2sc2ncsc23)c1` [Example 19, 4-(3-Bromoanilino)thiazolo[4′,5′; 4,5]thieno[3,2-d]pyrimidine], for which the IC50 in assay [3] was about 1500 nM.

On to `Clc1cccc(Nc2ncnc3c2sc2ncccc23)c1` [Example 20, 4-(3-Chloroanilino)pyrido[3′, 2′:4,5]thieno[3,2-d]pyrimidine], for which the IC50 in assay [1] (EGF Receptor Tyrosine Kinase Inhibition, Table 1, values printed in μM, read-out: IC50 in EGFR) stood at 1300 nM.

In assay [1], `Brc1cccc(Nc2ncnc3c2sc2ncccc23)c1` [Example 21, 4-(3-bromoanilino)pyrido[3′, 2′; 4,5]thieno[3,2-d]pyrimidine] came in with an IC50 of 732 nM.

As for `c1ccc(CNc2ncnc3c2[nH]c2ccccc23)cc1` [Example 23, 4-Benzylaminoindolo[3,2-d]pyrimidine], the IC50 in assay [1] (setting [4]) is 460 nM.

On to `Brc1cccc(Nc2ncnc3c2[nH]c2ccccc23)c1` [Example 25, 4-(3-Bromoanilino)indolo[3,2-d]pyrimidine hydrochloride], for which the IC50 in assay [3] is 1000 nM.

For the compound `c1ccc(Nc2ncnc3[nH]c4ccccc4c23)cc1` [Example 27, 4-Anilinoindolo[2,3-d]pyrimidine], in assay [1] (setting [4]), the IC50 was 264 nM.

Consider `Brc1cccc(Nc2ncnc3[nH]c4ccccc4c23)c1` [Example 28, 4-(3-Bromoanilino)indolo[2,3-d]pyrimidine hydrochloride], for which the IC50 amounted to 630 nM in assay [2], 10 nM in assay [3], 31 nM in assay [1] (setting [4]) and 31 nM in assay [1] (setting [5]).

For the compound `Cn1c2ccccc2c2c(Nc3cccc(Br)c3)ncnc21` [Example 29, 4-(3-Bromoanilino)-9,N-methylindolo[2,3-d]pyrimidine.], the half-inhibitory concentration (IC50) came out at 109 nM in assay [2], 1100 nM in assay [3] and 732 nM in assay [1] (setting [4]).

`COc1ccc2[nH]c3ncnc(Nc4cccc(Br)c4)c3c2c1` [Example 31, 4-(3-Bromoanilino)6-methoxyindolo[2,3-d]pyrimidine] had an IC50 in assay [1] of 220 nM.

Consider `Nc1nc(Nc2cccc(Br)c2)c2c(n1)[nH]c1ccccc12` [Example 32, 2-Amino-4-(3-bromoanilino)pyrimido[2,3-d]indole], for which the IC50 in assay [1] (setting [4]) is 160 nM.

On to `Brc1cccc(Nc2ncnc3c2oc2ccccc23)c1` [Example 34, 4-(3-Bromoanilino)benzofurano[3,2-d]pyrimidine], for which 740 nM corresponded to half-maximal inhibition in assay [1] (IC50).
